According to patent publication US20240174618A1, “SUBSTITUTED (2-HETEROARYLOXYPHENYL)SULFONATES, SALTS THEREOF AND THEIR USE AS HERBICIDAL AGENTS” (Bayer Aktiengesellschaft, priority 2021, published 2024):

What was measured:
Assay type in all cases: in vivo
[1] = system: Triticum aestivum (TRZAS); assay: D. Pre-emergence effect on useful plants, TRZAS; conditions: useful plant
Excerpt: (§1) Seeds of monocotyledonous and dicotyledonous weed plants and crop plants were placed in plastic or organic planting pots and covered with soil. The compounds of the invention, formulated in the form of wettable powders (WP) or as emulsion concentrates (EC), were then applied to the surface of the covering soil as aqueous suspension or emulsion with addition of 0.5% additive at a water application rate equivalent to 600 l/ha (converted). After the treatment, the pots were placed in a greenhouse and kept under good growth conditions for the test plants. After about 3 weeks, the efficacy of the preparations was scored visually in comparison with untreated controls as percentages. For example, • 100% efficacy=plants have died, • 0% efficacy=like untreated control plants.
(§2) Tables D1a to D5b below show the effects of selected compounds of the general formula (I) according to table 1 on various useful plants at an application rate corresponding to 320 g/ha or less, which were obtained by the experimental procedure mentioned above.

[2] = system: Alopecurus myosuroides (ALOMY); assay: C. Herbicidal pre-emergence efficacy, ALOMY; conditions: 320 g/ha, scored after about 3 weeks
Excerpt: as §1
(§3) Tables C1a to C14b below show the effects of selected compounds of the general formula (I) according to table 1 on various harmful plants at an application rate corresponding to 320 g/ha or less, which were obtained by the experimental procedure mentioned above.

[3] = system: Digitaria sanguinalis (DIGSA); assay: E. Herbicidal post-emergence efficacy, DIGSA
Procedure: (§4) Seeds of monocotyledonous and dicotyledonous weeds and crop plants were placed in sandy loam in plastic or organic planting pots, covered with soil and cultivated in a greenhouse under controlled growth conditions. 2 to 3 weeks after sowing, the test plants were treated at the one-leaf stage. The compounds of the invention, formulated in the form of wettable powders (WP) or as emulsion concentrates (EC), were then sprayed onto the green parts of the plants as aqueous suspension or emulsion with addition of 0.5% additive at a water application rate of 600 l/ha (converted). After the test plants had been kept in the greenhouse under optimum growth conditions for about 3 weeks, the activity of the preparations was rated visually in comparison to untreated controls.
(§5) For example, • 100% efficacy=plants have died, • 0% action=like untreated control plants.
(§6) Tables E1a to E12b below show the effects of selected compounds of the general formula (I) according to table 1 on various harmful plants at an application rate corresponding to 320 g/ha or less, which were obtained by the experimental procedure mentioned above.

Zea mays (ZEAMX) = assay: D. Pre-emergence effect on useful plants, ZEAMX; conditions: useful plant
Excerpt: as §1, §2

Poa annua (POAAN) = assay: B. Herbicidal post-emergence efficacy, POAAN
Summary of the method: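 Visual percent efficacy relative to untreated controls (0% unaffected, 100% dead), scored roughly 3 weeks after foliar spraying of one-leaf-stage pot-grown plants with WP or EC preparations at application rates up to 1280 g/ha in 600 L/ha water containing 0.5% additive.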

[4] = system: Matricaria inodora (MATIN); assay: C. Herbicidal pre-emergence efficacy, MATIN; conditions: scored after about 3 weeks
Excerpt: as §1, §3

Lolium rigidum (LOLRI) = assay: B. Herbicidal post-emergence efficacy, LOLRI
Procedure: Seeds of mono- and dicotyledonous weed plants were placed in plastic pots in sandy loam soil (doubly sown with in each case one species of mono- or dicotyledonous weed plants per pot), covered with soil and cultivated in a greenhouse under controlled growth conditions. 2 to 3 weeks after sowing, the test plants were treated at the one-leaf stage. The compounds of the invention, formulated in the form of wettable powders (WP) or as emulsion concentrates (EC), were applied onto the green parts of the plants as aqueous suspension or emulsion with addition of 0.5% additive at a water application rate of 600 liters per hectare (converted). After the test plants had been kept in the greenhouse under optimum growth conditions for about 3 weeks, the activity of the preparations was rated visually in comparison to untreated controls.
For example, • 100% efficacy=plants have died, • 0% efficacy=like untreated control plants
Tables B1a to B12c below show the effects of selected inventive compounds of the general formula (I) according to table 1 on various harmful plants at an application rate corresponding to 1280 g/ha or less, which were obtained by the experimental procedure mentioned above.

[5] = system: Alopecurus myosuroides (ALOMY); assay: E. Herbicidal post-emergence efficacy, ALOMY; conditions: application rate 320 g/ha
Procedure: as §4, §5, §6

[6] = system: Pharbitis purpurea (PHBPU); assay: C. Herbicidal pre-emergence efficacy, PHBPU; conditions: 320 g/ha, scored after about 3 weeks
Excerpt: as §1, §3

SMILES | Pre-emergence efficacy against TRZAS in % ([1]; application rate 80 g/ha) [%] | Pre-emergence efficacy against ALOMY [2] [%] | Post-emergence efficacy against DIGSA in % ([3]; application rate 320 g/ha) [%] | Pre-emergence efficacy against ZEAMX in % (Zea mays (ZEAMX); application rate 80 g/ha) [%] | Post-emergence efficacy against POAAN (Poa annua (POAAN); 320 g/ha) [%] | Post-emergence efficacy against POAAN (Poa annua (POAAN); 1280 g/ha) [%] | Pre-emergence efficacy against TRZAS in % ([1]; application rate 320 g/ha) [%] | other results
O=S(=O)(CCC(F)=C(F)F)Oc1c(F)cccc1Oc1ncc(Cl)cn1 [Example I-70] | 0 | 100 | 90 | – | – | – | – | –
C=CCCS(=O)(=O)Oc1c(F)cccc1Oc1ncc(Cl)cn1 [Example I-50] | 0 | 90 | – | 0 | 90 | 90 | – | Post-emergence efficacy against POAAN (Poa annua (POAAN); 80 g/ha): 90%
O=S(=O)(CCl)Oc1ccccc1Oc1ncc(Cl)cn1 [Example I-9] | 20 | 80 | 80 | 0 | – | 90 | – | Pre-emergence efficacy against MATIN ([4]; 320 g/ha): 80%; Pre-emergence efficacy against ZEAMX in % (Zea mays (ZEAMX); application rate 320 g/ha): 20%
O=S(=O)(CCCC(F)(F)F)Oc1c(Cl)cccc1Oc1ncc(Br)cn1 [Example I-34] | 0 | 80 | 90 | – | 100 | 100 | 0 | –
Cc1cccc(Oc2ncc(F)cn2)c1OS(=O)(=O)CCCC(F)(F)F [Example I-46] | – | 100 | – | 0 | – | – | – | –
O=S(=O)(CCCC(F)(F)C(F)(F)F)Oc1c(F)cccc1Oc1ncc(Cl)cn1 [Example I-68] | 0 | 90 | 90 | 10 | 90 | 100 | 10 | Pre-emergence efficacy against MATIN ([4]; 80 g/ha): 90%; Pre-emergence efficacy against MATIN ([4]; 320 g/ha): 100%
O=S(=O)(CCC(F)(F)F)Oc1c(Br)cccc1Oc1ncc(Cl)cn1 [Example I-31] | – | – | – | – | 90 | 100 | – | –
CCCCCS(=O)(=O)Oc1ccccc1Oc1ncc(Cl)cn1 [Example I-24] | 0 | – | – | 0 | 90 | 100 | 0 | Pre-emergence efficacy against ZEAMX in % (Zea mays (ZEAMX); application rate 320 g/ha): 0%; Post-emergence efficacy against LOLRI (Lolium rigidum (LOLRI); 1280 g/ha): 90%
Cc1cccc(OS(=O)(=O)CCCCl)c1Oc1ncc(Cl)cn1 [Example I-12] | 0 | – | – | 20 | – | 90 | – | Post-emergence efficacy against LOLRI (Lolium rigidum (LOLRI); 320 g/ha): 90%; Post-emergence efficacy against LOLRI (Lolium rigidum (LOLRI); 1280 g/ha): 90%
Cc1cccc(Oc2ncc(F)cn2)c1OS(=O)(=O)CCC(F)(F)F [Example I-45] | 0 | 100 | – | 0 | – | – | – | Pre-emergence efficacy against ZEAMX in % (Zea mays (ZEAMX); application rate 320 g/ha): 20%
CCS(=O)(=O)Oc1ccccc1Oc1ncc(Cl)cn1 [Example I-16] | – | – | – | – | – | 100 | – | –
O=S(=O)(CCCCl)Oc1cccc(F)c1Oc1ncc(Cl)cn1 [Example I-13] | 10 | – | – | 10 | – | 100 | 10 | Pre-emergence efficacy against ZEAMX in % (Zea mays (ZEAMX); application rate 320 g/ha): 20%
CCCS(=O)(=O)Oc1ccccc1Oc1ncc(Cl)cn1 [Example I-3] | 10 | 100 | – | – | – | 90 | – | Pre-emergence efficacy against MATIN ([4]; 320 g/ha): 90%; Post-emergence efficacy against ALOMY in % [5]: 80%; Pre-emergence efficacy against PHBPU [6]: 80%
O=S(=O)(CCC(F)(F)F)Oc1c(Br)cccc1Oc1ncc(F)cn1 [Example I-43] | 0 | – | – | 0 | – | – | – | Pre-emergence efficacy against MATIN ([4]; 320 g/ha): 80%
CC(C)CCS(=O)(=O)Oc1ccccc1Oc1ncc(Cl)cn1 [Example I-25] | 0 | 80 | – | 0 | 90 | 100 | 0 | Post-emergence efficacy against LOLRI (Lolium rigidum (LOLRI); 1280 g/ha): 90%
O=S(=O)(CCCC(F)(F)F)Oc1c(Cl)cccc1Oc1ncc(Cl)cn1 [Example I-39] | – | 100 | 100 | 0 | 90 | 90 | – | Pre-emergence efficacy against MATIN ([4]; 320 g/ha): 80%; Pre-emergence efficacy against PHBPU [6]: 90%; Post-emergence efficacy against DIGSA in % ([3]; application rate 80 g/ha): 90%
N#Cc1cccc(Oc2ncc(Cl)cn2)c1OS(=O)(=O)CCCC(F)(F)F [Example I-81] | 0 | 90 | 90 | 0 | – | – | – | Post-emergence efficacy against ALOMY in % [5]: 90%; Pre-emergence efficacy against PHBPU [6]: 100%; Post-emergence efficacy against DIGSA in % ([3]; application rate 80 g/ha): 80%
Cc1cccc(Oc2ncc(Cl)cn2)c1OS(=O)(=O)CC1CC(F)(F)C1 [Example I-74] | 0 | – | – | 0 | 100 | 100 | – | Post-emergence efficacy against POAAN (Poa annua (POAAN); 80 g/ha): 90%; Post-emergence efficacy against LOLRI (Lolium rigidum (LOLRI); 1280 g/ha): 100%
O=S(=O)(CCC(F)=C(F)F)Oc1c(Cl)cccc1Oc1ncc(Cl)cn1 [Example I-73] | 0 | – | – | – | – | 100 | 20 | Post-emergence efficacy against LOLRI (Lolium rigidum (LOLRI); 1280 g/ha): 90%
O=S(=O)(CCC1CC1)Oc1c(F)cccc1Oc1ncc(Cl)cn1 [Example I-55] | 0 | – | 90 | 10 | 90 | 90 | – | –
C=CCS(=O)(=O)Oc1ccccc1Oc1ncc(Cl)cn1 [Example I-36] | 0 | – | – | 0 | – | 90 | 0 | –
O=S(=O)(CC1CC1(Cl)Cl)Oc1c(F)cccc1Oc1ncc(Cl)cn1 (stereo not shown) [Example I-57] | – | – | – | – | 90 | 90 | – | –
